# What was measured:
# HGT-1 cells = experiment: Proton secretion assay (intracellular proton index IPX, SNARF-1-AM); assay type: cell-based, human; settings: for ΔIPX (change in intracellular proton index vs untreated cells): 10 min incubation in KRHB, mean ± SEM, n = 4–8
# Protocol: The measurement of proton secretion from HGT-1 cells represents a well-established model for the identification of bitter compounds. By affecting extraoral bitter taste receptors with bitter compounds, a modulatory effect on proton secretion can be measured. For this purpose, cells were washed with KRHB and incubated with 3 μM of the intracellular pH indicator 1,5 carboxy-seminaphto-rhodafluor acetoxymethyl ester (SNARF-1-AM) under standard conditions. After 30 min, the cells were washed again with KRHB and then incubated with casein (0.01–10 μM equimolar related to the relevant forms αS1- and β-casein), hydrolysate (0.01–10 μM), or the peptides (0.01–200 μM). […] All substances were dissolved and diluted in KRHB. 1 mM histamine was used as a positive control. Measurements were performed using FlexStation 3 (Molecular Devices, USA). The excitation wavelength was 488 nm, and the emission wavelengths were 580 and 640 nm. For calibration (pH range 7.0–8.0), the intracellular and extracellular pH was adjusted with 2 μM nigericin in potassium buffer (20 mM NaCl, 110 mM KCl, 1 mM CaCl2, 1 mM MgSO4, 18 mM D-glucose, and 20 mM HEPES). The intracellular proton index (IPX) was calculated as the log2 value of the 580/640 ratio and compared with cells without treatment. Negative values represent increased secretion of protons and therefore stimulation of mechanisms regulating gastric acid secretion in HGT-1 cells. In contrast, positive values represent an inhibition of secretion compared to the untreated control.
# [1] = Solubility of casein in the proton secretion assay; assay type: physicochemical; settings: casein in KRHB, concentrations above 10 µM could not be investigated
# Caco-2 cell monolayers = settings: Caco-2; cited from earlier work
# Excerpt: In addition, transport through Caco-2 cell monolayers was ...
# pepsin = experiment: In vitro gastric digestion of casein with targeted UHPLC-MS/MS-MRM quantitation of peptides; assay type: in vitro ADME, porcine; settings: 37 °C, n = 4; for degradation of the peptide during further in vitro gastric digestion: SGF pH 3 with pepsin, up to 6 h
# Protocol: The in vitro digestion was based on the Nature protocol established by Brodkorb et al.([30]) For this, simulated salivary fluid (SSF, containing 15.1 mM KCl, 3.7 mM KH2PO4, 13.6 mM NaHCO3, 0.15 mM MgCl2(H2O)6, 0.06 mM (NH4)2CO3, 1.1 mM HCl, and 1.5 mM CaCl2(H2O)2) and simulated gastric fluid (SGF, containing 6.9 mM KCl, 0.9 mM KH2PO4, 25.0 mM NaHCO3, 47.2 mM NaCl, 0.12 mM MgCl2(H2O)6, 0.5 mM (NH4)2CO3, 15.6 mM HCl, and 0.15 mM CaCl2(H2O)2) were prepared. A total amount of 100 mg casein was suspended in 3 mL of SSF and incubated for 5 min at 37 °C in the tube rotator. After taking a sample (500 μL, t = 0 h), 2 mL of SGF was added and the pH was adjusted to 3 with 100 μL of HCl (1 M). After addition of 125 μL of pepsin solution (80,000 U/mL in 10 mM HCl), 275 μL of H2O was added to fill up to 5 mL. This was followed by further incubation at 37 °C in a tube rotator for 6 h. 500 μL of samples was taken at 0.25, 0.5, 0.75, 1, 2, 3, 4, 5, and 6 h, respectively. The samples were frozen in liquid nitrogen and stored at −80 °C until further analysis. For MS experiments, all samples were diluted 1:1 with 10% MeCN.
# All targeted proteomics LC–MS/MS measurements were performed using a Sciex ExionLC AC (Sciex, Darmstadt, Germany) coupled to a 6500+ QTrap LC–MS/MS system (Sciex, Darmstadt, Germany) operating in the positive electrospray ionization mode. Data acquisition and instrumentation control were performed with AnalystTF software (v 1.7.1; Sciex, Darmstadt, Germany). Separation was performed using a 100 × 2.1 mm, 1.7 μm, Kinetex C18 column (Phenomenex, Aschaffenburg, Germany) with a guard column of the same type with 0.1% aqueous formic acid and acetonitrile containing 0.1% formic acid at a flow rate of 0.25 mL/min. The gradient was based on the following scheme: 0 min, 15% B; 7 min, 40% B; 7.5 min, 98% B; 10.5 min, 98% B; 10.8 min, 15% B; and 15 min, 15% B. The column oven temperature was set at 40 °C, and the injection volume was 1 μL per sample. For MS/MS measurements, the same parameters were used for all samples (ion spray voltage […], source temperature 450 °C, nebulizing gas 60 psi, and heating gas 30 psi). Nitrogen was set to 35 psi and served as a curtain gas to effectively dissolve the ions. To optimize the parameters DP, CE, and collision cell exit potential for each peptide and transition (Supporting Information Table-SI 2), standard solutions of the five synthesized peptides were injected directly into the MS ion source. Ionization parameters were optimized in positive ESI mode using AnalystTF software (v 1.7.1; Sciex, Darmstadt, Germany). For the preparation of the calibration curves, five peptides were dissolved individually in D2O (600 μL) and the concentration of the stock solutions was determined by qNMR.[35] For each peptide, seven calibration solutions (0.5, 1, 5, 10, 50, 100, and 200 μM) were diluted in 5% MeCN from these stock solutions. The data were analyzed using MultiQuant software (v 3.0.3; Sciex, Darmstadt, Germany).
"highest concentration released during in vitro digestion (pepsin; 100 mg casein, SSF then SGF pH 3 with pepsin, 0–6 h, mean)",degradation of the peptide during further in vitro gastric digestion (pepsin),Substance,"ΔIPX (change in intracellular proton index vs untreated cells) (HGT-1 cells; 5 µM, positive = inhibited proton secretion)","ΔIPX (change in intracellular proton index vs untreated cells) (HGT-1 cells; 10 µM, negative = stimulated, positive = inhibited proton secretion)","change in mean IPX (HGT-1 cells; casein concentrations below 5 µM (0.01–<5 µM, equimolar related to αS1- and β-casein))",solubility [1],"concentrations at which a significant ΔIPX was found (HGT-1 cells; tested 0.01–200 µM, 10 min)",transport through Caco-2 cell monolayers (Caco-2 cell monolayers),"ΔIPX (change in intracellular proton index vs untreated cells) (HGT-1 cells; 0.1 µM, IPX = log2 of 580/640 ratio, negative = stimulated proton secretion)"
–,–,casein,+0.212 ± 0.029,+0.441 ± 0.037,No significant change,poor solubility,–,–,–
up to 148.7 μM,not further degraded,PVVVPPFLQPEVM [bitter casein peptide βA1/A2-CN81–93],–,–,–,–,at 1 and 10 μM only,transport through Caco-2 cell monolayers was observed,–
–,no noticeable degradation,YYVPLGTQ [bitter casein peptide αS1-CN165–172],–,–,–,–,–,–,−0.166 ± 0.017

# Source: publication PMC9501810, “Bitter Peptides YFYPEL, [sequence], and [sequence], Released during Gastric Digestion of Casein, Stimulate Mechanisms of Gastric Acid Secretion via Bitter Taste Receptors TAS2R16 and TAS2R38” (Journal of Agricultural and Food Chemistry, 2022)
